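48-hour exposure; five concentrations; linearly interpolated endpoints. Abbreviation: GI50, concentration required for 50% inhibition of growth.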 Activity calls are given as the source filed them. Rule as the data show it: active = GI50 up to about 1.1 µM and inactive = higher.
How the values were obtained:
Assay in all cases: inhibition of tumour cell growth, NCI panel, 48 h
DLD-1 = system: DLD-1
CCRF-CEM = system: CCRF-CEM
SN12C = system: SN12C
U-251 = system: U-251
K562 = system: K562
RXF 393 = system: RXF 393
SF-268 = system: SF-268
UACC-257 = system: UACC-257
A549 = system: A549
RPMI-8226 = system: RPMI-8226
MOLT-4 = system: MOLT-4
Malme-3M = system: Malme-3M
786-0 = system: 786-0
OVCAR-3 = system: OVCAR-3
SNB-19 = system: SNB-19
ACHN = system: ACHN
BT-549 = system: BT-549
MDA-N = system: MDA-N
PC-3 = system: PC-3
DU-145 = system: DU-145

Row | Compound | GI50 (DLD-1) | GI50 (CCRF-CEM) | GI50 (SN12C) | GI50 (U-251) | GI50 (K562) | GI50 (RXF 393) | GI50 (SF-268) | GI50 (UACC-257) | GI50 (A549) | GI50 (RPMI-8226) | GI50 (MOLT-4) | GI50 (Malme-3M) | GI50 (786-0) | GI50 (OVCAR-3) | GI50 (SNB-19) | GI50 (ACHN) | GI50 (BT-549) | GI50 (MDA-N) | GI50 (PC-3) | GI50 (DU-145)
1 | c1coc(CNc2[nH]cnc3nncc2-3)c1 | > 100 µM (inactive) | > 100 µM (inactive) | > 100 µM (inactive) | > 100 µM (inactive) | 57.8 µM (inactive) | > 100 µM (inactive) | > 100 µM (inactive) | > 100 µM (inactive) | > 100 µM (inactive) | 73.8 µM (inactive) | > 100 µM (inactive) | > 100 µM (inactive) | > 100 µM (inactive) | > 100 µM (inactive) | > 100 µM (inactive) | > 100 µM (inactive) |  |  |  | 
2 | COC(OC)c1cc2c(cc1C(=O)[C@@]13CCC[C@@H]1NC(=O)O3)OCO2 | 79.6 µM (inactive) | > 100 µM (inactive) | > 100 µM (inactive) | > 100 µM (inactive) | > 100 µM (inactive) | 52.2 µM (inactive) | > 100 µM (inactive) | > 100 µM (inactive) |  |  | > 100 µM (inactive) | 22.6 µM (inactive) | > 100 µM (inactive) | > 100 µM (inactive) | 91.2 µM (inactive) | > 100 µM (inactive) |  |  |  | 
3 | COc1cc2c(cc1OC)[C@H]1CN3CCC[C@H]3C=C1c1ccc(OC)c(O)c1-2 | < 0.0001 µM (active) | 0.000422 µM (active) | 0.000531 µM (active) | 0.000605 µM (active) | 0.000512 µM (active) | 0.00667 µM (active) | 0.000819 µM (active) | 0.000681 µM (active) | 0.000598 µM (active) | 0.000577 µM (active) | 0.000486 µM (active) | 0.000608 µM (active) | 0.000728 µM (active) | < 0.0001 µM (active) | < 0.0001 µM (active) | 0.000566 µM (active) | 0.0195 µM (active) | 0.00346 µM (active) | 0.00359 µM (active) | 0.00342 µM (active)
4 | c1ccc2[nH]c(CNc3ccc(C4C[Se]N=N4)cc3)nc2c1 (stereo not given) | > 100 µM (inactive) | 25.7 µM (inactive) | 86.9 µM (inactive) | 55.8 µM (inactive) | 27.9 µM (inactive) | > 100 µM (inactive) | 47.3 µM (inactive) |  | > 100 µM (inactive) | 25.6 µM (inactive) | 9.02 µM (inactive) | 25.3 µM (inactive) | > 100 µM (inactive) | 21.7 µM (inactive) | 84.1 µM (inactive) | > 100 µM (inactive) |  |  |  | 
5 | O=C(O)CC[C@H](NC(=O)c1ccc(-n2nc3ccc(=O)cc-3[nH]c2=O)cc1)C(=O)O | > 100 µM (inactive) | > 100 µM (inactive) | > 100 µM (inactive) | > 100 µM (inactive) | > 100 µM (inactive) | > 100 µM (inactive) | > 100 µM (inactive) | > 100 µM (inactive) | > 100 µM (inactive) | > 100 µM (inactive) | > 100 µM (inactive) | > 100 µM (inactive) | > 100 µM (inactive) | > 100 µM (inactive) | > 100 µM (inactive) | > 100 µM (inactive) |  |  |  | 
6 | O=C1C=C(Nc2ccccc2C(=O)CC(=O)C(=O)Nc2cccc([N+](=O)[O-])c2)c2ccccc2C1=O | 21.9 µM (inactive) | 3.3 µM (inactive) | 23.4 µM (inactive) | 32.4 µM (inactive) | 17.7 µM (inactive) | 46.3 µM (inactive) | 22.2 µM (inactive) | 27.2 µM (inactive) | 83.9 µM (inactive) | 5.58 µM (inactive) | 4.28 µM (inactive) | 20.4 µM (inactive) | 29.4 µM (inactive) | 14.2 µM (inactive) | 23.3 µM (inactive) | > 100 µM (inactive) |  |  |  | 
7 | COc1ccc(/C(=N/NC(N)=O)C(c2ccc(OC)cc2)C2C(=O)Oc3ccccc32)cc1 (stereo not given) | > 100 µM (inactive) | > 100 µM (inactive) | > 100 µM (inactive) | > 100 µM (inactive) | > 100 µM (inactive) | 86.1 µM (inactive) | > 100 µM (inactive) | > 100 µM (inactive) | > 100 µM (inactive) | > 100 µM (inactive) | > 100 µM (inactive) | > 100 µM (inactive) | > 100 µM (inactive) | > 100 µM (inactive) | > 100 µM (inactive) |  |  |  |  | 
8 | CCCCOP1(=O)C=C(C)C(=C(Cl)Cl)C(C)=C1 (stereo not given) | 16.2 µM (inactive) | 4.2 µM (inactive) | 7.31 µM (inactive) | 6.97 µM (inactive) | 3.85 µM (inactive) | 8.51 µM (inactive) | 5.56 µM (inactive) | 5.43 µM (inactive) | 6.58 µM (inactive) | 2.74 µM (inactive) | 3.02 µM (inactive) | 14.1 µM (inactive) | 12.5 µM (inactive) | 17.9 µM (inactive) | 25.8 µM (inactive) | 6.43 µM (inactive) |  |  |  | 
9 | COC(=O)N/N=C(\C)CC(=O)Nc1ccc(Cl)cc1 | > 100 µM (inactive) | > 100 µM (inactive) |  | > 100 µM (inactive) | > 100 µM (inactive) | 42.6 µM (inactive) | > 100 µM (inactive) | > 100 µM (inactive) | > 100 µM (inactive) | > 100 µM (inactive) | > 100 µM (inactive) | > 100 µM (inactive) | > 100 µM (inactive) | > 100 µM (inactive) |  |  |  |  |  | 
10 | Cc1cc2c(c3c1c1ccccc1n3C)C(=O)C=CC2=O | 6.32 µM (inactive) | 0.631 µM (active) | 27.2 µM (inactive) | 19.3 µM (inactive) | 3.15 µM (inactive) | 15.3 µM (inactive) | 23.9 µM (inactive) | 18.2 µM (inactive) | 44.6 µM (inactive) | 2.82 µM (inactive) | 2 µM (inactive) | 28.3 µM (inactive) | 5.6 µM (inactive) | 11.5 µM (inactive) | 63.7 µM (inactive) | 21.3 µM (inactive) | 14.1 µM (inactive) | 24.5 µM (inactive) | 16.9 µM (inactive) | 58.9 µM (inactive)
11 | CC1OC(n2cc(F)c(=O)[nH]c2=O)CCC1=O (stereo not given) | 52.5 µM (inactive) | > 100 µM (inactive) | > 100 µM (inactive) | > 100 µM (inactive) | > 100 µM (inactive) | > 100 µM (inactive) | > 100 µM (inactive) | > 100 µM (inactive) | 46.7 µM (inactive) | 49.7 µM (inactive) | > 100 µM (inactive) | > 100 µM (inactive) | > 100 µM (inactive) |  | > 100 µM (inactive) | > 100 µM (inactive) |  |  |  | 
12 | COc1cccc(OC)c1/C=N\N1C(=O)c2ccccc2C1=O | 49 µM (inactive) | 33.6 µM (inactive) | 57.1 µM (inactive) |  | 39.1 µM (inactive) | 26.7 µM (inactive) | 37.8 µM (inactive) | > 100 µM (inactive) | > 100 µM (inactive) | 28.2 µM (inactive) | 40.6 µM (inactive) | 60 µM (inactive) | 31.3 µM (inactive) | 19.9 µM (inactive) | > 100 µM (inactive) | 47.4 µM (inactive) |  |  |  | 
13 | COc1ccc(N2C(=O)C3c4[nH]c5ccccc5c4C4CCC(C(C)(C)C)CC4C3C2=O)cc1OC (stereo not given) | 15.1 µM (inactive) | 27.7 µM (inactive) | 23 µM (inactive) | 27.6 µM (inactive) | 28.2 µM (inactive) | 14.8 µM (inactive) | 18.7 µM (inactive) | 67 µM (inactive) | 16.1 µM (inactive) | 22.2 µM (inactive) | 15.6 µM (inactive) | 38.4 µM (inactive) | 17.8 µM (inactive) |  | 26.2 µM (inactive) | 22.1 µM (inactive) |  |  |  | 
14 | OC12CC/C(=N/OCc3ccccc3)CC1c1ccccc12 (stereo not given) | > 100 µM (inactive) | > 100 µM (inactive) | > 100 µM (inactive) | > 100 µM (inactive) | > 100 µM (inactive) | > 100 µM (inactive) | > 100 µM (inactive) | > 100 µM (inactive) | > 100 µM (inactive) | > 100 µM (inactive) | > 100 µM (inactive) | > 100 µM (inactive) | > 100 µM (inactive) | > 100 µM (inactive) | > 100 µM (inactive) | > 100 µM (inactive) |  |  |  | 
15 | COC(=O)/C(=C/CC(N=C(c1ccccc1)c1ccccc1)C(=O)OC)N=C(c1ccccc1)c1ccccc1 (stereo not given) | > 100 µM (inactive) | > 100 µM (inactive) | > 100 µM (inactive) | > 100 µM (inactive) | > 100 µM (inactive) | 26.1 µM (inactive) | > 100 µM (inactive) | > 100 µM (inactive) | > 100 µM (inactive) | 79.3 µM (inactive) | > 100 µM (inactive) | > 100 µM (inactive) | > 100 µM (inactive) | > 100 µM (inactive) | > 100 µM (inactive) | > 100 µM (inactive) |  |  |  | 
16 | CC1(C)COC2(OC1)C1=NS(=O)(=O)CC13CCC2C3(C)C (stereo not given) | > 100 µM (inactive) | > 100 µM (inactive) | > 100 µM (inactive) | > 100 µM (inactive) | > 100 µM (inactive) | > 100 µM (inactive) | > 100 µM (inactive) | > 100 µM (inactive) | > 100 µM (inactive) | > 100 µM (inactive) | > 100 µM (inactive) | > 100 µM (inactive) | > 100 µM (inactive) | > 100 µM (inactive) | > 100 µM (inactive) | > 100 µM (inactive) |  |  |  | 
17 | CCCCCCCCCCCCNC1(C)CNCCCNCCNCCCNC1 | 1.67 µM (inactive) | 1.38 µM (inactive) | 1.67 µM (inactive) | 1.08 µM (active) | 1.89 µM (inactive) | 1.56 µM (inactive) | 1.34 µM (inactive) | 1.76 µM (inactive) | 1.76 µM (inactive) | 1.63 µM (inactive) | 1.43 µM (inactive) | 2.01 µM (inactive) | 1.75 µM (inactive) | 1.82 µM (inactive) | 1.76 µM (inactive) | 1.78 µM (inactive) |  |  |  | 

From ChEMBL document CHEMBL1201862, “PubChem BioAssay data set” (2004)
